Measurements published in patent publication US20240409530A1, “Disubstituted Pyrimidine Compounds for Ketohexokinase Inhibition” (Centennial Therapeutics, LLC, priority 2023, published 2024).

Tests used:
Human recombinant KHK-A = Human recombinant KHK-A (Homo sapiens (Human), UniProt P50053); experiment: KHK inhibition assay, recombinant isozyme (coupled pyruvate kinase/LDH, NADH absorbance 340 nm); assay type: biochemical; conditions: recombinant isozyme 6 nM, fructose 2 mM, ATP 0.1 mM
Experimental: (§1) Determination of Human and Rat recombinant KHK-A and KHK-C isozyme IC50 Values
(§2) An assay reagent cocktail was prepared by combining NADH, water, TEA, KCl, MgCl2, PEP, ATP, DTT, coupling enzymes (pyruvate kinase and lactate dehydrogenase, LDH) to final concentrations as shown in Table B.
(§3) To this was added the relevant KHK isozyme to a final concentration of 6 nM. Aliquots of each inhibitor compound were diluted via 5-fold serial dilutions to produce final concentrations ranging from 1000 nM to 0.064 nM. The inhibitor aliquots were added to the assay reagent cocktail containing KHK with fructose (at a concentration of 2 mM) in a 96-well plate. The absorbance at 340 nm was measured via spectrophotometry and inhibition was analyzed using non-linear regression.

Human recombinant KHK-C = Human recombinant KHK-C (Homo sapiens (Human), UniProt P50053); experiment: as above; assay type: biochemical; conditions: recombinant isozyme 6 nM, fructose 2 mM, ATP 0.1 mM
Experimental: as §1, §2, §3

Rat recombinant KHK-A = Rat recombinant KHK-A (Rattus norvegicus (Rat), UniProt Q02974); experiment: as above; assay type: biochemical; conditions: recombinant isozyme 6 nM, fructose 2 mM, ATP 0.1 mM
Experimental: as §1, §2, §3

Rat recombinant KHK-C = Rat recombinant KHK-C (Rattus norvegicus (Rat), UniProt Q02974); experiment: as above; assay type: biochemical; conditions: recombinant isozyme 6 nM, fructose 2 mM, ATP 0.1 mM
Experimental: as §1, §2, §3

human KHK in HepG2 Cells = human KHK in HepG2 Cells (Homo sapiens (Human), UniProt P50053); experiment: Cell-based potency assay (HepG2 assay), F1P by LC/MS; conditions: fructose 20 mM, 20 min, F1P produced
Experimental: Testing inhibition effect of compounds against human KHK in HepG2 Cells
HepG2 cells were grown in RPMI1640 supplemented media on 100 mm plates to near confluency (about 5-8×10^6 cells). The growth media was aspirated and 4 mL trypsin solution (0.25% (w/v)+0.25% (w/v) EDTA) was added, followed by incubation at 37° C. for 5-10 mins. The cells were pelleted and resuspended in 2 mL complete media.
The cells were then placed in a 96 well plate at 20,000-50,000 cells per well and grown for 20-28 hours at 37° C. to allow adherence.
Inhibitor compounds were diluted in DMSO to 50 μM, then serially diluted with MEM media (ThermoFisher). Final inhibitor concentration ranged from 1000 nM to 0.064 nM (5-fold dilution series).
The RPMI medium was removed from the plate of confluent cells. The plate was then incubated for 35 min at 37°, after which were added 0.1 mL of the diluted inhibitor compounds in MEM with fructose, 0.1 mL of MEM media without inhibitor compound or fructose, or trypsin; yielding a final concentration of fructose at 20 mM. The plate was subsequently incubated for 20 min at 37°, then placed on ice to stop the reactions.
Next, 200 μL of cold 80% (v/v) methanol:water was added to all wells, except the controls used to enumerate cell count. The plate was vortexed and cell debris removed by centrifugation. To measure F1P produced, the resulting supernatant fraction was analyzed by LC/MS.

human KHK in HepG2 Cells, sequence (P50053 whole entry): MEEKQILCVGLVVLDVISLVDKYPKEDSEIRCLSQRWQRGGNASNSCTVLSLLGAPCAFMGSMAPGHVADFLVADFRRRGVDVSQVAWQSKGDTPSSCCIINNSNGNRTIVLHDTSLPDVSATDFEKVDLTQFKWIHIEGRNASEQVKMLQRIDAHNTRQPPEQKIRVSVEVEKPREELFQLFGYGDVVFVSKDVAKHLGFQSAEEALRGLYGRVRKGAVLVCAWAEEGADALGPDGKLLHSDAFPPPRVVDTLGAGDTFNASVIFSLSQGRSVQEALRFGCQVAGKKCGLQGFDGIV
Human recombinant KHK-C, sequence (P50053 whole entry): as above
Rat recombinant KHK-C, sequence (Q02974 whole entry): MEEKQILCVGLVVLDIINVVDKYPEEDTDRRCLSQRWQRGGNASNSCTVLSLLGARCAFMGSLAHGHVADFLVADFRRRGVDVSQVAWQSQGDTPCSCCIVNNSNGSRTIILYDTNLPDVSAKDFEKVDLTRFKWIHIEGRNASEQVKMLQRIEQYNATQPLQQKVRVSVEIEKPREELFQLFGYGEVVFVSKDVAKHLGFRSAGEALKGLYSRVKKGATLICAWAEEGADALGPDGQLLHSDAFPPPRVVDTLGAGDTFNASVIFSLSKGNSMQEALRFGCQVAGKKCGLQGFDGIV
Rat recombinant KHK-A, sequence (Q02974 other isoform, or with tags, fused parts or gaps): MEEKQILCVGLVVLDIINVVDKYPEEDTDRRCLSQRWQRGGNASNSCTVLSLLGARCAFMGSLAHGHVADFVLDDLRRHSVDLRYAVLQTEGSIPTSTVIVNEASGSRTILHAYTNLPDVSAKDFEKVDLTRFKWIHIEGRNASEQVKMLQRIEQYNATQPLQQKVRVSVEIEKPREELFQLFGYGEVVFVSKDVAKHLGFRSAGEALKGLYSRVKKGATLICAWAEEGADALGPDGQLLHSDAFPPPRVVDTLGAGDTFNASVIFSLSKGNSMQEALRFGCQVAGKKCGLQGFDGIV
Human recombinant KHK-A, sequence (P50053 other isoform, or with tags, fused parts or gaps): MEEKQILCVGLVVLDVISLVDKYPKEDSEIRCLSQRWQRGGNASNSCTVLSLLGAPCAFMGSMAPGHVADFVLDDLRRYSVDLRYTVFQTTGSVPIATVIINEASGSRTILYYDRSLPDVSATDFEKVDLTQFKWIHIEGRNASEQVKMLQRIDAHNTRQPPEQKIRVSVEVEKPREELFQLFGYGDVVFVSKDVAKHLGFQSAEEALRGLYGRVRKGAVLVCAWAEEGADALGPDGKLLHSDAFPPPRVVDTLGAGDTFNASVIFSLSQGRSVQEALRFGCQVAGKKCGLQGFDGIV

| Compound | IC50 (Human recombinant KHK-A) [nM] | IC50 (Human recombinant KHK-C) [nM] | IC50 (Rat recombinant KHK-A) [nM] | IC50 (Rat recombinant KHK-C) [nM] | IC50 (human KHK in HepG2 Cells) [nM] |
| --- | --- | --- | --- | --- | --- |
| Cc1c(-c2cnn(CC(=O)N3CCNCC3)c2)nc(N2CC[C@@H]2C(F)(F)F)nc1C(F)(F)F [Compound A1, 2-(4-{2-[(R)-2-(trifluoromethyl)-1-azetidinyl]-5-methyl-6-(trifluoromethyl)-4-pyrimidinyl}-1-pyrazolyl)-1-(1-piperazinyl)-1-ethanone] | 6 | 4.06 | 2.2 | 9 | 7 |
| O=C(Cn1cc(-c2cc(C(F)(F)F)nc(N3CC[C@@H]3C(F)(F)F)n2)cn1)N1CCNCC1 [Compound A2, 2-(4-{2-[(R)-2-(trifluoromethyl)-1-azetidinyl]-6-(trifluoromethyl)-4-pyrimidinyl}-1-pyrazolyl)-1-(1-piperazinyl)-1-ethanone] | 13.5 | 31 | 9 | 26 | 48 |
| CCc1c(-c2cnn(CC(=O)N3CCNCC3)c2)nc(N2CC[C@@H]2C)nc1C(F)(F)F [Compound A6, 2-(4-{2-[(S)-2-methyl-1-azetidinyl]-5-ethyl-6-(trifluoromethyl)-4-pyrimidinyl}-1-pyrazolyl)-1-(1-piperazinyl)-1-ethanone] | 8.8 | 15.7 | 2.3 | 11 | 70 |
| C[C@H]1CCN1c1nc(-c2cnn(CC(=O)N3CCNCC3)c2)cc(C(F)F)n1 [Compound A7, 2-(4-{2-[(S)-2-methyl-1-azetidinyl]-6-(difluoromethyl)-4-pyrimidinyl}-1-pyrazolyl)-1-(1-piperazinyl)-1-ethanone] | 160 | 231 | 46 | 120 | 332 |
| COc1c(-c2cnn(C3CN(C)C3)c2)nc(N2C[C@@H](O)[C@@H]2C)nc1C(F)(F)F [Compound A8, (2S,3R)-1-{5-methoxy-4-[1-(1-methyl-3-azetidinyl)-4-pyrazolyl]-6-(trifluoromethyl)-2-pyrimidinyl}-2-methyl-3-azetidinol] | 7.8 | 6.46 | 5.5 | 16 | – |
| C[C@H]1[C@H](O)CN1c1nc(-c2cnn(C3CN(C)C3)c2)c(Cl)c(C(F)(F)F)n1 [Compound A10, (2S,3R)-1-{5-chloro-4-[1-(1-methyl-3-azetidinyl)-4-pyrazolyl]-6-(trifluoromethyl)-2-pyrimidinyl}-2-methyl-3-azetidinol] | 0.2 | 0.856 | 0.2 | 1.1 | – |
| CCc1c(-c2cnn(C3CN(C)C3)c2)nc(N2C[C@@H](O)[C@@H]2C)nc1C(F)(F)F [Compound A11, (2S,3R)-1-{5-ethyl-4-[1-(1-methyl-3-azetidinyl)-4-pyrazolyl]-6-(trifluoromethyl)-2-pyrimidinyl}-2-methyl-3-azetidinol] | 8.5 | 2.09 | 0.96 | 2.1 | 4 |
| Cc1c(-c2cnn(CC(=O)N3CCNCC3)c2)nc(N2CC[C@@H]2C(F)(F)F)nc1C(F)F [Compound A18, 2-(4-{2-[(R)-2-(trifluoromethyl)-1-azetidinyl]-6-(difluoromethyl)-5-methyl-4-pyrimidinyl}-1-pyrazolyl)-1-(1-piperazinyl)-1-ethanone] | 5.3 | 7.42 | 4.1 | 9.5 | 11 |
| COc1c(-c2cnn(C3CN(C)C3)c2)nc(N2C[C@@H](O)[C@@H]2C)nc1C(F)F [Compound A19, (2S,3R)-1-{6-(difluoromethyl)-5-methoxy-4-[1-(1-methyl-3-azetidinyl)-4-pyrazolyl]-2-pyrimidinyl}-2-methyl-3-azetidinol] | 27 | 10.6 | 6.6 | 17 | 23 |
| Cc1c(-c2cnn(CC(=O)N3CCNCC3)c2)nc(N2CC[C@@H]2C)nc1C(F)F [Compound A24, 2-(4-{2-[(S)-2-methyl-1-azetidinyl]-6-(difluoromethyl)-5-methyl-4-pyrimidinyl}-1-pyrazolyl)-1-(1-piperazinyl)-1-ethanone] | 31 | 14.7 | 5.2 | 17 | 28 |
| CCc1c(-c2cnn(CC(=O)N3CCNCC3)c2)nc(N2CC[C@@H]2C)nc1C(F)F [Compound A26, 2-(4-{2-[(S)-2-methyl-1-azetidinyl]-6-(difluoromethyl)-5-ethyl-4-pyrimidinyl}-1-pyrazolyl)-1-(1-piperazinyl)-1-ethanone] | 13 | 32.9 | 5.2 | 26 | – |
| C[C@H]1[C@H](O)CN1c1nc(-c2cnn(C3CN(C)C3)c2)c(F)c(C(F)(F)F)n1 [Compound A27, (2S,3R)-1-{5-fluoro-4-[1-(1-methyl-3-azetidinyl)-4-pyrazolyl]-6-(trifluoromethyl)-2-pyrimidinyl}-2-methyl-3-azetidinol] | – | 4.09 | – | – | 9 |

The next lines start with the values.

| IC50 (Human recombinant KHK-A) [nM] | IC50 (Human recombinant KHK-C) [nM] | IC50 (Rat recombinant KHK-A) [nM] | IC50 (Rat recombinant KHK-C) [nM] | IC50 (human KHK in HepG2 Cells) [nM] | Compound |
| --- | --- | --- | --- | --- | --- |
| 15 | 18 | 4.1 | 20 | – | COc1c(-c2cnn(CC(=O)N3CCNCC3)c2)nc(N2CC[C@@H]2C(F)(F)F)nc1C(F)(F)F [Compound A28, 2-(4-{2-[(R)-2-(trifluoromethyl)-1-azetidinyl]-5-methoxy-6-(trifluoromethyl)-4-pyrimidinyl}-1-pyrazolyl)-1-(1-piperazinyl)-1-ethanone] |
| 12 | 23.2 | 8.2 | 20 | – | C[C@H]1CCN1c1nc(-c2cnn(CC(=O)N3CCNCC3)c2)c(F)c(C(F)(F)F)n1 [Compound A32, 2-(4-{2-[(S)-2-methyl-1-azetidinyl]-5-fluoro-6-(trifluoromethyl)-4-pyrimidinyl}-1-pyrazolyl)-1-(1-piperazinyl)-1-ethanone] |
| 65 | 90.9 | 23 | 86 | – | O=C(Cn1cc(-c2cc(C(F)(F)F)nc(N3CC[C@@H]3C(F)F)n2)cn1)N1CCNCC1 [Compound A33, 2-(4-{2-[(R)-2-(difluoromethyl)-1-azetidinyl]-6-(trifluoromethyl)-4-pyrimidinyl}-1-pyrazolyl)-1-(1-piperazinyl)-1-ethanone] |
| 6.5 | 3.64 | 7.3 | 14 | 36 | O=C(Cn1cc(-c2nc(N3CC[C@@H]3C(F)F)nc(C(F)(F)F)c2Cl)cn1)N1CCNCC1 [Compound A38, 2-(4-{2-[(R)-2-(difluoromethyl)-1-azetidinyl]-5-chloro-6-(trifluoromethyl)-4-pyrimidinyl}-1-pyrazolyl)-1-(1-piperazinyl)-1-ethanone] |
| 13 | 18.3 | 10 | 26 | 43 | Cc1c(-c2cnn(CC(=O)N3CCNCC3)c2)nc(N2CC[C@@H]2C(F)F)nc1C(F)F [Compound A42, 2-(4-{2-[(R)-2-(difluoromethyl)-1-azetidinyl]-6-(difluoromethyl)-5-methyl-4-pyrimidinyl}-1-pyrazolyl)-1-(1-piperazinyl)-1-ethanone] |
| 4.5 | 8.03 | 6.8 | 12 | 23 | Cc1c(-c2cnn(CC(=O)N3CCNCC3)c2)nc(N2CC[C@@H]2C(F)F)nc1C(F)(F)F [Compound A43, 2-(4-{2-[(R)-2-(difluoromethyl)-1-azetidinyl]-5-methyl-6-(trifluoromethyl)-4-pyrimidinyl}-1-pyrazolyl)-1-(1-piperazinyl)-1-ethanone] |
